Patent US9072734B2, “Quaternary ammonium salt compounds” (Teijin Pharma Limited, priority 2009, dated 2015)
Counter-ions that a name gives are not always drawn.

Experiments:
[1] = molecular target: T1, human β2 adrenergic receptor (Homo sapiens, UniProt P07550); assay: Whole-cell cAMP Flashplate assay using CHO-K1 cells stably expressing human β2 adrenergic receptor; type: cell-based; conditions: cAMP production
T1 construct: expressed in transfected cells; host or cells: CHO-K1

[2] = molecular target: T2, human M3 muscarinic receptor (Homo sapiens, UniProt P20309); assay: Inhibitory effect on methacholine-induced calcium influx, FLIPR assay, CHO-K1 cells stably expressing the human M3 muscarinic receptor; type: cell-based; conditions: inhibition of calcium influx induced by methacholine
T2 construct: expressed in transfected cells; host or cells: CHO-K1
T2 sequence (P20309 whole entry): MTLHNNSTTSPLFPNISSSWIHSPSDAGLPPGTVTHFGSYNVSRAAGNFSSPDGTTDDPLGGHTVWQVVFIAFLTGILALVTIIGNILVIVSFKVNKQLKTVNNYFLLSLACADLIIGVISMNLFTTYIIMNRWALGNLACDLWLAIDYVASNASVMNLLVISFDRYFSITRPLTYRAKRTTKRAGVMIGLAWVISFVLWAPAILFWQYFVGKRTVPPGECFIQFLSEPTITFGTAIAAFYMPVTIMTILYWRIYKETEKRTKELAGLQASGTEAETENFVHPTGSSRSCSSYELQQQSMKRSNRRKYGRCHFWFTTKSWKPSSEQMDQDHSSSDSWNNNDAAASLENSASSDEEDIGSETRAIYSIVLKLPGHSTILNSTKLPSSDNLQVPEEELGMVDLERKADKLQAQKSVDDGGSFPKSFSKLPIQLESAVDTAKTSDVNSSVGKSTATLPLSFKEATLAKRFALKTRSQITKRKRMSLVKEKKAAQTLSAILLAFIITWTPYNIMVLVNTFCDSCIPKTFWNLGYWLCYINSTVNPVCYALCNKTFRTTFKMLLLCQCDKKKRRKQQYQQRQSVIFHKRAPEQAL
Method in brief: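 Dye-loaded hM3 CHO-K1 cells were preincubated 180 s with compound solutions prepared at 10 two-fold concentrations (0.01–1000 nM). A 30 nM methacholine solution was then added. Fluorescence was traced for 170 s; max−min signal gave % inhibition against agonist and no-agonist controls, and IC50 came from a four-parameter logistic fit.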

T1 sequence (P07550 whole entry): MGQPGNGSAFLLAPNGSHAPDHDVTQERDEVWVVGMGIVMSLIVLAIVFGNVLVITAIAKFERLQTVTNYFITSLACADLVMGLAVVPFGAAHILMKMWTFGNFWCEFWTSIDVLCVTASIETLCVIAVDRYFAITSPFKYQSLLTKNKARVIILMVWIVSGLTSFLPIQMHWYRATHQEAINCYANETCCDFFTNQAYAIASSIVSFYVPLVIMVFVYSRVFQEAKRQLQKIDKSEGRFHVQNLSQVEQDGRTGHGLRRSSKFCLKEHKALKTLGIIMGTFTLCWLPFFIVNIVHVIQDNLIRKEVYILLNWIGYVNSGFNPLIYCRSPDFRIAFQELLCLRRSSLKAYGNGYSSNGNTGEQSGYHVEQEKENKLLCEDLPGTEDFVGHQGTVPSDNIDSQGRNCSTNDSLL

Row | SMILES | EC50 [1] | IC50 [2]
1 | C[N+]1(C)[C@@H]2CC(OC(=O)Nc3ccc(CCCC(=O)Nc4ccc(CNC[C@H](O)c5ccc(O)c6[nH]c(=O)ccc56)cc4)cc3-c3ccccc3)C[C@H]1[C@@H]1O[C@@H]12 (stereo partly drawn) [Example 53, (1R,2R,4S,5S,7S)-7-({[4-(3-{[4-({[(2R)-2-hydroxy-2-(8-hydroxy-2-oxo-1,2-dihydroquinolin-5-yl)ethyl]amino}methyl)phenyl]carbamoyl}propyl)-2-phenylphenyl]carbamoyl}oxy)-9,9-dimethyl-3-oxa-9-azatricyclo[3.3.1.0^2,4]nonan-9-ium trifluoroacetate] | 0.6 nM | 53.7 nM
2 | C[N+]1(C)CCC(OC(=O)Nc2ccc(CCCC(=O)Nc3ccc(CNC[C@H](O)c4ccc(O)c5[nH]c(=O)ccc45)cc3)cc2-c2ccccc2)CC1 [Example 54, 4-({[4-(3-{[4-({[(2R)-2-hydroxy-2-(8-hydroxy-2-oxo-1,2-dihydroquinolin-5-yl)ethyl]amino}methyl)phenyl]carbamoyl}propyl)-2-phenylphenyl]carbamoyl}oxy)-1,1-dimethylpiperidin-1-ium trifluoroacetate] | 0.9 nM | 20.9 nM
3 | COc1cc(NC(=O)CCCc2ccc(NC(=O)O[C@@H]3C[C@@H]4[C@H]5O[C@H]5[C@H](C3)[N+]4(C)C)c(-c3ccccc3)c2)c(Cl)cc1CNC[C@H](O)c1ccc(O)c2[nH]c(=O)ccc12 [Example 55, (1R,2R,4S,5S,7S)-7-({[4-(3-{[2-chloro-4-({[(2R)-2-hydroxy-2-(8-hydroxy-2-oxo-1,2-dihydroquinolin-5-yl)ethyl]amino}methyl)-5-methoxyphenyl]carbamoyl}propyl)-2-phenylphenyl]carbamoyl}oxy)-9,9-dimethyl-3-oxa-9-azatricyclo[3.3.1.0^2,4]nonan-9-ium trifluoroacetate] | 0.2 nM | 51.8 nM
4 | C[N+]1(C)[C@@H]2C[C@@H](OC(=O)Nc3ccc(CCCC(=O)Nc4ccc5cc(CNC[C@H](O)c6ccc(O)c7[nH]c(=O)ccc67)ccc5c4)cc3-c3ccccc3)C[C@H]1[C@@H]1O[C@@H]12 [Example 56, (1R,2R,4S,5S,7S)-7-({[4-(3-{[6-({[(2R)-2-hydroxy-2-(8-hydroxy-2-oxo-1,2-dihydroquinolin-5-yl)ethyl]amino}methyl)naphthalen-2-yl]carbamoyl}propyl)-2-phenylphenyl]carbamoyl}oxy)-9,9-dimethyl-3-oxa-9-azatricyclo[3.3.1.0^2,4]nonan-9-ium trifluoroacetate] | 0.9 nM | 64.1 nM
5 | C[N+]1(C)CCC(OC(=O)Nc2cc(OCCCCCCCCNC[C@H](O)c3ccc(O)c4[nH]c(=O)ccc34)ccc2-c2ccccc2)CC1 [Example 58, 4-[({5-[(8-{[(2R)-2-hydroxy-2-(8-hydroxy-2-oxo-1,2-dihydroquinolin-5-yl)ethyl]amino}octyl)oxy]-2-phenylphenyl}carbamoyl)oxy]-1,1-dimethylpiperidin-1-ium trifluoroacetate] | 0.6 nM | 46.4 nM
6 | C[N+]1(C)CCC(OC(=O)Nc2cc(CCCCOc3ccc(CNC[C@H](O)c4ccc(O)c5[nH]c(=O)ccc45)cc3)ccc2-c2ccccc2)CC1 [Example 61, 4-{[(5-{4-[4-({[(2R)-2-hydroxy-2-(8-hydroxy-2-oxo-1,2-dihydroquinolin-5-yl)ethyl]amino}methyl)phenoxy]butyl}-2-phenylphenyl)carbamoyl]oxy}-1,1-dimethylpiperidin-1-ium trifluoroacetate] | 8.7 nM | 37.8 nM
7 | C[N+]1(C)CCC(OC(=O)Nc2cc(CCC(=O)Nc3ccc(CCCNC[C@H](O)c4ccc(O)c5[nH]c(=O)ccc45)cc3)ccc2-c2ccccc2)CC1 [Example 62, 4-({[5-(2-{[4-(3-{[(2R)-2-hydroxy-2-(8-hydroxy-2-oxo-1,2-dihydroquinolin-5-yl)ethyl]amino}propyl)phenyl]carbamoyl}ethyl)-2-phenylphenyl]carbamoyl}oxy)-1,1-dimethylpiperidin-1-ium trifluoroacetate] | 1.5 nM | 51.3 nM
8 | C[N+]1(C)CCC(OC(=O)Nc2cc(CCC(=O)Nc3ccc(CCNC[C@H](O)c4ccc(O)c5[nH]c(=O)ccc45)cc3)ccc2-c2ccccc2)CC1 [Example 63, 4-({[5-(2-{[4-(2-{[(2R)-2-hydroxy-2-(8-hydroxy-2-oxo-1,2-dihydroquinolin-5-yl)ethyl]amino}ethyl)phenyl]carbamoyl}ethyl)-2-phenylphenyl]carbamoyl}oxy)-1,1-dimethylpiperidin-1-ium trifluoroacetate] | 5.6 nM | 41.7 nM
9 | C[N+]1(C)CCC(OC(=O)Nc2ccc(CCC(=O)Nc3ccc(CNC[C@H](O)c4ccc(O)c5[nH]c(=O)ccc45)cc3)cc2-c2ccccc2)CC1 [Example 69, 4-({[4-(2-{[4-({[(2R)-2-hydroxy-2-(8-hydroxy-2-oxo-1,2-dihydroquinolin-5-yl)ethyl]amino}methyl)phenyl]carbamoyl}ethyl)-2-phenylphenyl]carbamoyl}oxy)-1,1-dimethylpiperidin-1-ium trifluoroacetate] | 16 nM | 44.7 nM
10 | COc1cc(NC(=O)CCCc2ccc(NC(=O)O[C@@H]3C[C@@H]4[C@H]5O[C@H]5[C@H](C3)[N+]4(C)C)c(-c3ccccc3)c2)c(Br)cc1CNC[C@H](O)c1ccc(O)c2[nH]c(=O)ccc12 [Example 70, (1R,2R,4S,5S,7S)-7-({[4-(3-{[2-bromo-4-({[(2R)-2-hydroxy-2-(8-hydroxy-2-oxo-1,2-dihydroquinolin-5-yl)ethyl]amino}methyl)-5-methoxyphenyl]carbamoyl}propyl)-2-phenylphenyl]carbamoyl}oxy)-9,9-dimethyl-3-oxa-9-azatricyclo[3.3.1.0^2,4]nonan-9-ium trifluoroacetate] | 0.2 nM | 60.3 nM
11 | C[N+]1(C)[C@@H]2C[C@@H](OC(=O)Nc3ccc(CCCC(=O)Nc4ccc(CNC[C@H](O)c5ccc(O)c6[nH]c(=O)ccc56)cc4Cl)cc3-c3ccccc3)C[C@H]1[C@@H]1O[C@@H]12 [Example 71, (1R,2R,4S,5S,7S)-7-({[4-(3-{[2-chloro-4-({[(2R)-2-hydroxy-2-(8-hydroxy-2-oxo-1,2-dihydroquinolin-5-yl)ethyl]amino}methyl)phenyl]carbamoyl}propyl)-2-phenylphenyl]carbamoyl}oxy)-9,9-dimethyl-3-oxa-9-azatricyclo[3.3.1.0^2,4]nonan-9-ium trifluoroacetate] | 0.2 nM | 38.9 nM
12 | C[N+]1(C)[C@@H]2C[C@@H](OC(=O)Nc3ccc(CCCC(=O)Nc4ccc(CNC[C@H](O)c5ccc(O)c6[nH]c(=O)ccc56)cc4Br)cc3-c3ccccc3)C[C@H]1[C@@H]1O[C@@H]12 [Example 72, (1R,2R,4S,5S,7S)-7-({[4-(3-{[2-bromo-4-({[(2R)-2-hydroxy-2-(8-hydroxy-2-oxo-1,2-dihydroquinolin-5-yl)ethyl]amino}methyl)phenyl]carbamoyl}propyl)-2-phenylphenyl]carbamoyl}oxy)-9,9-dimethyl-3-oxa-9-azatricyclo[3.3.1.0^2,4]nonan-9-ium trifluoroacetate] | 0.3 nM | 49 nM
13 | C[N+]1(C)[C@@H]2CC(OC(=O)Nc3cc(CCC(=O)Nc4ccc(CCCNC[C@H](O)c5ccc(O)c6[nH]c(=O)ccc56)cc4)ccc3-c3ccccc3)C[C@H]1[C@@H]1O[C@@H]12 (stereo partly drawn) [Example 73, (1R,2R,4S,5S,7S)-7-({[5-(2-{[4-(3-{[(2R)-2-hydroxy-2-(8-hydroxy-2-oxo-1,2-dihydroquinolin-5-yl)ethyl]amino}propyl)phenyl]carbamoyl}ethyl)-2-phenylphenyl]carbamoyl}oxy)-9,9-dimethyl-3-oxa-9-azatricyclo[3.3.1.0^2,4]nonan-9-ium trifluoroacetate] | 10 nM | 27.5 nM
14 | C[N+]1(C)CCC(OC(=O)Nc2cc(CCCCCCCCCNC[C@H](O)c3ccc(O)c4[nH]c(=O)ccc34)ccc2-c2ccccc2)CC1 [Example 76, 4-({[5-(9-{[(2R)-2-hydroxy-2-(8-hydroxy-2-oxo-1,2-dihydroquinolin-5-yl)ethyl]amino}nonyl)-2-phenylphenyl]carbamoyl}oxy)-1,1-dimethylpiperidin-1-ium trifluoroacetate] | 14.1 nM | 38 nM
15 | C[N+]1(C)CCC(OC(=O)Nc2cc(CCCOCCCCCNC[C@H](O)c3ccc(O)c4[nH]c(=O)ccc34)ccc2-c2ccccc2)CC1 [Example 78, 4-{[(5-{3-[(5-{[(2R)-2-hydroxy-2-(8-hydroxy-2-oxo-1,2-dihydroquinolin-5-yl)ethyl]amino}pentyl)oxy]propyl}-2-phenylphenyl)carbamoyl]oxy}-1,1-dimethylpiperidin-1-ium trifluoroacetate] | 1.3 nM | 74.1 nM
16 | C[N+]1(C)CCC(OC(=O)Nc2cc(CCNC(=O)c3ccc(CNC[C@H](O)c4ccc(O)c5[nH]c(=O)ccc45)cc3)ccc2-c2ccccc2)CC1 [Example 80, 4-({[5-(2-{[4-({[(2R)-2-hydroxy-2-(8-hydroxy-2-oxo-1,2-dihydroquinolin-5-yl)ethyl]amino}methyl)phenyl]formamide}ethyl)-2-phenylphenyl]carbamoyl}oxy)-1,1-dimethylpiperidin-1-ium trifluoro acetate] | 2.4 nM | 29.9 nM
17 | C[N+]1(C)CCC(OC(=O)Nc2cc(CNC(=O)COc3ccc(CNC[C@H](O)c4ccc(O)c5[nH]c(=O)ccc45)cc3)ccc2-c2ccccc2)CC1 [Example 81, 4-({[5-({2-[4-({[(2R)-2-hydroxy-2-(8-hydroxy-2-oxo-1,2-dihydroquinolin-5-yl)ethyl]amino}methyl)phenoxy]acetamide}methyl)-2-phenylphenyl]carbamoyl}oxy)-1,1-dimethylpiperidin-1-ium trifluoroacetate] | 8.7 nM | 25.1 nM
